From ChEMBL document CHEMBL1909046, “DrugMatrix in vitro pharmacology data”

Assays:
[1] = biological target: T1, Adenosine receptor A1 (Homo sapiens, UniProt P30542); type: cell membranes, CHO, Membrane; conditions: cho;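 note: radioligand binding assay at the adenosine A1 receptor, with DPCPX serving as the labelled ligand; in other assays of this panel Not Active means under 50% inhibition at 10 µM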
T1 sequence (P30542 whole entry): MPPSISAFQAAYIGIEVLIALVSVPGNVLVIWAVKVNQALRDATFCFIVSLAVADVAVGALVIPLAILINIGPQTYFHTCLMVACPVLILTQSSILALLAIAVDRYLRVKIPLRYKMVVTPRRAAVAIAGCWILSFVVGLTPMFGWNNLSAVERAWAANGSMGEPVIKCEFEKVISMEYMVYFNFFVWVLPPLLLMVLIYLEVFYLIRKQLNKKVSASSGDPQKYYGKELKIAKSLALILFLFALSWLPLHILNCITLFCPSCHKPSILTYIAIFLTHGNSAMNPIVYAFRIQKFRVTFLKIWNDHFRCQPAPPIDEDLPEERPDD

[2] = biological target: T2, Nitric oxide synthase, inducible (Mus musculus, UniProt P29477); set-up: species or system Escherichia coli;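 note: inhibition of iNOS enzyme activity measured with L-arginine as substrate; in other assays of this panel Not Active means under 50% inhibition at 10 µM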
T2 sequence (P29477 whole entry): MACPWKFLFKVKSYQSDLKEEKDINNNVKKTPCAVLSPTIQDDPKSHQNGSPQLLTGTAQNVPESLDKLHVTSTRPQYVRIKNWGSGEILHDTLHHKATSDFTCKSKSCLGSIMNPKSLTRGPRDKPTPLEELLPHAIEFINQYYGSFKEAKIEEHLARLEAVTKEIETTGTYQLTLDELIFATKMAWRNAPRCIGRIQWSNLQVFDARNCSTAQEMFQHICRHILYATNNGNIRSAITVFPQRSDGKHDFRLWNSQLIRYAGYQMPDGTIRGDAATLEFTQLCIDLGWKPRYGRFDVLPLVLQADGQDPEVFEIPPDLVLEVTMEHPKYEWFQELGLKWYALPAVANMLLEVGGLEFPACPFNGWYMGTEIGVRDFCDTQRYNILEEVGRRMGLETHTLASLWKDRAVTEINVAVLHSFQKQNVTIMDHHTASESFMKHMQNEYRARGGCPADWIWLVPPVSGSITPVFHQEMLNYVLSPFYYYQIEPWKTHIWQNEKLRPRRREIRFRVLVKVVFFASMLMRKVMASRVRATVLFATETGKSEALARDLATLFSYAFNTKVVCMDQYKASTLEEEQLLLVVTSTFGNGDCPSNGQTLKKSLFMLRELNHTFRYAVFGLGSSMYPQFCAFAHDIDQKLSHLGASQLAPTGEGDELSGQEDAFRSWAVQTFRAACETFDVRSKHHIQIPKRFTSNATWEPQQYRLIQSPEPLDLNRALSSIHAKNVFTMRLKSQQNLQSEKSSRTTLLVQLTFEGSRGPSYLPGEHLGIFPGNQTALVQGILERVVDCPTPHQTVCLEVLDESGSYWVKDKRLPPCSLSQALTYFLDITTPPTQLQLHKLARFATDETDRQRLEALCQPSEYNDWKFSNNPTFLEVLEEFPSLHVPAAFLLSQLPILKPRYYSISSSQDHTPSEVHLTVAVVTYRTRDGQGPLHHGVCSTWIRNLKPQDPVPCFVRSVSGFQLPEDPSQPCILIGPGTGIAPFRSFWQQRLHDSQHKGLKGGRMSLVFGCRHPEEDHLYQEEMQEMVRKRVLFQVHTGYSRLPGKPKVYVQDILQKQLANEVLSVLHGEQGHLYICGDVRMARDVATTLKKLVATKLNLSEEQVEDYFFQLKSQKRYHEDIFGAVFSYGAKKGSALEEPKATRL

[3] = biological target: Cannabinoid receptor 1 (Homo sapiens, UniProt P21554); type: cell membranes, Chem-1, Membrane; conditions: chem-1; note: in other assays of this panel Not Active means under 50% inhibition at 10 µM
[4] = biological target: cGMP-specific 3',5'-cyclic phosphodiesterase (Homo sapiens, UniProt O76074); assay: DRUGMATRIX: Phosphodiesterase PDE5 enzyme inhibition (substrate: [3H]cGMP + cGMP); type: tissue-based, Platelet; conditions: platelet; Not Active = under 50% inhibition at 10 µM
[5] = biological target: T3, B2 bradykinin receptor (Homo sapiens, UniProt P30411); type: cell membranes, Membrane; conditions: chem-1; note: in other assays of this panel Not Active means under 50% inhibition at 10 µM
T3 sequence (P30411 whole entry): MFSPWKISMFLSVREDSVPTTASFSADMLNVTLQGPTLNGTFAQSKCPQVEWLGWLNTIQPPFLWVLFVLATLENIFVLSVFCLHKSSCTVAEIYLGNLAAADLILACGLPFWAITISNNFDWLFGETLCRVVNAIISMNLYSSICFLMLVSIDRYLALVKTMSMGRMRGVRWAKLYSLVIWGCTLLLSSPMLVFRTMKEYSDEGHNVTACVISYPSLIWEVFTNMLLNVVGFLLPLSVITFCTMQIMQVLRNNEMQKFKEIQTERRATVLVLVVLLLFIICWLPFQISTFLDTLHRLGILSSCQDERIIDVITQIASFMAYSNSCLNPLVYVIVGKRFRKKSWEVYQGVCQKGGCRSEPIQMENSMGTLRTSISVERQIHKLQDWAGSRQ

[6] = biological target: T4, Cytochrome P450 2A6 (Homo sapiens, UniProt P11509); conditions: bti-tn-5b1-4; note: in other assays of this panel Not Active means under 50% inhibition at 10 µM
T4 sequence (P11509 whole entry): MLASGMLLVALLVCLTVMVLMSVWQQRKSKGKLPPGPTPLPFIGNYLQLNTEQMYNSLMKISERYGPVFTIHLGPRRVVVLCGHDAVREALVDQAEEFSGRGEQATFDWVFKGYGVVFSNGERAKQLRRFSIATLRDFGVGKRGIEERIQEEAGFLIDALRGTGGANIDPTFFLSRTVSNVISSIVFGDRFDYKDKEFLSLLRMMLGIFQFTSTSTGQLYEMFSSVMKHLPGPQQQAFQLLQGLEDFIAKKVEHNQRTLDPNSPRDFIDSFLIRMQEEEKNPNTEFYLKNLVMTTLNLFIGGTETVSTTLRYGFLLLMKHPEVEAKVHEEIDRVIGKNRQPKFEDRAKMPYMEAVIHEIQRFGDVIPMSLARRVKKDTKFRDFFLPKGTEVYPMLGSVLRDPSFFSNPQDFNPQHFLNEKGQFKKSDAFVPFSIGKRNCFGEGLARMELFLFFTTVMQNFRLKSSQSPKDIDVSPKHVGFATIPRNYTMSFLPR

[7] = biological target: T5, Caspase-1 (Homo sapiens, UniProt P29466); set-up: species or system Escherichia coli
T5 sequence (P29466 whole entry): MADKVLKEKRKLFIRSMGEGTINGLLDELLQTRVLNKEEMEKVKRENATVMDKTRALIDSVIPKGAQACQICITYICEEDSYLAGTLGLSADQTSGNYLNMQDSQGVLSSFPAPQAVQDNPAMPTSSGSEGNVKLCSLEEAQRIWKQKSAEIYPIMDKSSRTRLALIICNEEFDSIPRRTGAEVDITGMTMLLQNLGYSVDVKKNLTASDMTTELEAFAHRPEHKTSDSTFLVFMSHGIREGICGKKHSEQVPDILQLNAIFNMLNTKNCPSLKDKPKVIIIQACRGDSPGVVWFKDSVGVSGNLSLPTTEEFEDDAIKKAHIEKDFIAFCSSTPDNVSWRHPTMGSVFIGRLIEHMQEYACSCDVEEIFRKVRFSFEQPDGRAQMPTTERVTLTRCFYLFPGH

Chain of Cannabinoid receptor 1 (P21554 whole entry): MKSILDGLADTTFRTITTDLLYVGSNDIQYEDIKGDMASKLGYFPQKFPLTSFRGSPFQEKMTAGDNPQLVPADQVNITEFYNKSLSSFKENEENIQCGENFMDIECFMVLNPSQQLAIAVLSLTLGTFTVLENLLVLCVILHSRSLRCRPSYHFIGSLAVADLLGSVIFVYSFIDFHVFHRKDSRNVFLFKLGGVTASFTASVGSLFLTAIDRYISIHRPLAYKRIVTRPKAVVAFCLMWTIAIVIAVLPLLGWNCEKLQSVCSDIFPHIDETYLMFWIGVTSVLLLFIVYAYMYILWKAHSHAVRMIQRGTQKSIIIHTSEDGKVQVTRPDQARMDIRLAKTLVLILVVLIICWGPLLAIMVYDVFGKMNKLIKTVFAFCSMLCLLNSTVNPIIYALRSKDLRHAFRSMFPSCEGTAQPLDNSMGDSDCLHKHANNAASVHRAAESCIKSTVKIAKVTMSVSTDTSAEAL

Nc1ccc(S(=O)(=O)NC(=O)c2ccccc2)cc1 [SULFABENZAMIDE]
Not Active: IC50 [1] | IC50 [2] | IC50 [3] | IC50 [4] | IC50 [5] | IC50 [6] | Ki [6] | IC50 [7]

CCCCCCCCNC(C)C(O)c1ccc(SC(C)C)cc1 (centres undefined) [SULOCTIDIL]
Not Active: IC50 [1] | IC50 [2] | IC50 [3] | IC50 [4] | IC50 [5] | IC50 [6] | Ki [6] | IC50 [7]

O=c1[nH]c(=O)n(C2CCCO2)cc1F (centres undefined) [TEGAFUR]
Not Active: IC50 [1] | IC50 [2] | IC50 [3] | IC50 [4] | IC50 [5] | IC50 [6] | Ki [6] | IC50 [7]

CC(=N)S [THIOACETAMIDE]
Not Active: IC50 [1] | IC50 [2] | IC50 [3] | IC50 [4] | IC50 [5] | IC50 [6] | Ki [6] | IC50 [7]

Cc1ccc(C(=O)c2ccc(CC(=O)O)n2C)cc1 [TOLMETIN]
Not Active: IC50 [1] | IC50 [2] | IC50 [3] | IC50 [4] | IC50 [5] | IC50 [6] | Ki [6] | IC50 [7]

CC(=O)OCC(COC(C)=O)OC(C)=O [TRIACETIN]
Not Active: IC50 [1] | IC50 [2] | IC50 [3] | IC50 [4] | IC50 [5] | IC50 [6] | Ki [6] | IC50 [7]

CN1CCN(CCCN2c3ccccc3Sc3ccc(C(F)(F)F)cc32)CC1 [TRIFLUOPERAZINE]
Not Active: IC50 [1] | IC50 [2] | IC50 [3] | IC50 [4] | IC50 [5] | IC50 [6] | Ki [6] | IC50 [7]

TRANSPLATIN
Not Active: IC50 [1] | Ki [1] | IC50 [2] | Ki [2] | IC50 [3] | Ki [3] | IC50 [4] | Ki [4] | IC50 [5] | Ki [5] | IC50 [6] | Ki [6] | IC50 [7] | Ki [7]

ZIRCONIUM(IV) CHLORIDE
Not Active: IC50 [1] | Ki [1] | IC50 [2] | Ki [2] | IC50 [3] | Ki [3] | IC50 [4] | Ki [4] | IC50 [5] | Ki [5] | IC50 [6] | Ki [6] | IC50 [7] | Ki [7]
